Measured values published in patent US8815590B2, “Composition and method for differentiation of human embryonic stem cells” (Stem Cells for Safer Medicines Limited, priority 2009, dated 2014).

How the values were obtained:
Human ESCs [SHEF3] [1] = test: Differentiation towards definitive endoderm: immunostaining and RT-PCR of endodermal markers; type: cell-based; conditions: 2 μM, feeder-free on Matrigel in mTeSR1, up to 7 days
Protocol: Human ESCs [SHEF3] were maintained feeder-free on Matrigel® in chemically defined mTeSR1® media and treated with 2 μM 1M for the days indicated. (A) Expression of the endodermal markers FoxA2, Sox17 and HNF4α were analysed by immunofluorescence. Treatment with compound 1M led to expression of all markers after 7 days treatment. Scale bar represents 50 μm. (B) ESCs were harvested on day 7 following treatment with 1M for the indicated days. RNA was extracted and RT-PCR analyses performed using primers selective for the genes indicated. […] (C) BIO induces differentiation towards the DE. SHEF3 ESCs were treated with 2 μM BIO for the times indicated and immunostained with antibodies towards the endodermal markers FOXA2, SOX17 and HNF4α. (D) Compound 1L also induces differentiation towards the DE. SHEF1 ESCs were treated with 2 μM 1L for the times indicated and immunostained with antibodies towards the endodermal markers FOXA2 and HNF4α.
ESCs were cultured feeder-free on Matrigel®-coated plates in mTeSR1® media, supplemented with 2 μM compound 1M for 7 days with the media being refreshed every-other day. Definitive endoderm cultures were passaged with collagenase (1 mg/ml) and plated at a ratio of 1:10 on Matrigel® in KO DMEM supplemented with glutamine, penicillin/streptomycin, NEAA, 2% (v/v) KOSR, 10 ng/ml HGF (Peprotech) and 10 ng/ml FGF4 and cultured for a further 7 days with the media being refreshed every-other day. To allow for maturation of the HLCs, 10 ng/ml oncostatin M (Peprotech) and 10^−7 dexamethasone (SIGMA) were added to the above media and the cells were cultured for an additional 7 days with fresh media every-other day.
(§1) Total RNA was isolated and purified using TRIzol Reagent (Invitrogen), following the manufacturer's instructions. All RNA samples were treated with DNase I (Ambion) before cDNA synthesis to eliminate any contaminating genomic DNA. RNA (1 μg) was reverse transcribed into cDNA using Oligo(dT)15 (Promega) and SuperScript II (Invitrogen). Gene-specific PCR was carried out using primers and annealing temperatures outlined in Table 2.
ESCs were cultured on Matrigel®-coated lummox (Greiner Bio One) trays and fixed with 4% paraformaldehyde (PFA) for 20 minutes at room temperature. Cells were permeabilised in PBST (with 0.1% Triton X-100) and blocked in 10% blocking reagent (Roche) before incubating with primary antibodies in 2% blocking reagent overnight at 4° C. After washing in PBS, cells were incubated with FITC-conjugated secondary antibodies (Vector Labs) for 3 hours at room temperature. After further washing, the cells were stained with 4,6-diamidino-2-phenylindole (DAPI) (SIGMA), washed again and mounted in MOWIOL. […]

Human ESCs [SHEF3] [2] = test: Colony morphology, RT-PCR and Western blot of OCT4/NANOG in treated human ESCs; type: cell-based
Protocol: (§2) Human ESCs [SHEF3] were treated with the indicated concentrations of BIO or compound 1M or left untreated as a control and cultured for 7 days. (A) Images show typical colonies formed following the indicated treatments. The scale bars represent 1 mm. (B) Histogram plots of ESCs analysed by flow cytometry following immunostaining with antibodies against the pluripotency markers Tra-1-60 or SSEA4. (C) RNA was extracted from the cells and RT-PCR analyses performed using primers specific to the pluripotency genes OCT4 and NANOG and to the house-keeping gene β-ACTIN. (D) Western blot analysis was performed on protein extracted from the cells and immunoblotted with antibodies specific to Oct4. Blots were stripped and reprobed with anti-Gapdh antibodies to assess equal loading. (E) Compound 1O also induces differentiation of human ESCs. SHEF3 cells were treated with the indicated concentration of 1O for 7 days. Images show typical colony morphology. (F) Histogram plots of ESCs analysed by flow cytometry following staining with Tra-1-60 and SSEA4 antibodies. Analysis of percent positive cells and mean fluorescent intensity are indicated on the plots. (G) RT PCR analysis for the expression of OCT4 and NANOG. Bands for each of the genes were from the same gel with intervening samples removed. (H) Western blot analysis of OCT4 protein expression. Proteins bands were from the same immunoblot with intervening samples removed.
(§3) SHEF1 and SHEF3 human ESCs were obtained from the UKSCB and cultured as outlined in their protocols. Briefly, ESCs were maintained on mitomycin C-inactivated mouse embryonic fibroblast (MEF) feeder layers in KnockOut Dulbecco's modified Eagle's medium (KO DMEM) (Invitrogen) supplemented with 20% (vol/vol) KO serum replacement (KOSR; Invitrogen), 1 mM non-essential amino acids (NEAA; Invitrogen), 1 mM glutamine (Invitrogen), 0.1 mM 2-mercaptoethanol (BioRad), penicillin/streptomycin, and 4 ng/ml recombinant human FGF2 (Peprotech). Cultures were passage using 1 mg/ml collagenase at a ratio of 1:8 to 1:12 every 7 days. Cultures were transferred to a feeder-free, chemically defined culture system on ESC-qualified Matrigel® (BD) coated plates in mTeSR1® (Stem Cell Technologies) media according to Stem Cell Technologies' protocol.
as §1
Cell lysates (20 μg) were prepared, separated by SDS-PAGE and transferred to nitrocellulose as described previously (Welham et al., 1994). Immunoblotting was carried out using primary antibodies at the following dilutions: 1:5,000 anti-Oct4 (Santa Cruz Biotechnology; sc-9081); 1:2000 anti-GAPDH (sc-20357); 1:10,000 anti-phospho (Ser33/37/Thr41) β-catenin (Cell signalling Technology; CST 9561); 1:1000 anti-β-catenin (CST 9562). Anti-rabbit antibodies conjugated to horseradish peroxidise (DAKO) were used at 1:10,000 and blots were developed using ECL Advance (GE Healthcare) or ChemiGlow (Alpha Innotech) according to manufacturer's directions. Images were captured and analysed using the ImageQuant RT ECL system (GE Healthcare). Blots were stripped and reprobed as described previously (Welham et al., 1994).

Human ESCs [SHEF3] [3] = test: Flow cytometry of pluripotency surface markers Tra-1-60 and SSEA4 in treated human ESCs; type: cell-based
Protocol: as §2, with “(A)” for “Human ESCs [SHEF3] were treated with the indicated concentrations of BIO or compound 1M or left untreated as a control and cultured for 7 days. (A)”, “(E) Compound 1O also induces differentiation of human ESCs.” left out
as §3
ESCs were trypsinised (0.05% Trypsin-EDTA) for 10 minutes at 37° C. and resuspended in PBS containing 2% (v/v) FBS (FBS/PBS). […] Cells were washed and stained with secondary fluorescein isothiocyanate (FITC)-conjugated antibodies (SIGMA) for a further 30 minutes, if required. Flow cytometry was performed using a FACSCanto cytometer (Becton Dickenson) and the data were analysed with FACSDiva software. Dead cells were excluded for analyses based on forward and side scatter parameters.

ESCs [SHEF1] [4] = test: RT-PCR of Activin/Nodal pathway and differentiation marker genes; type: cell-based, human; conditions: 10 μM with 2 μM 1M
Protocol: (§4) (A) RNA was extracted from ESCs [SHEF1] cultured for 7 days in the presence of 2 μM 1M for the days indicated. RT-PCR analyses were performed using primers selective for the genes indicated. (B) ESCs [SHEF1] were treated with 2 μM 1M alone or in combination with 10 μM SB43125 (S) for the days indicated and RT-PCR performed on the extracted RNA. (C) ESCs [SHEF3] were treated with 1M alone or in combination with 100 ng/ml Activin A (A) for the days indicated and RT-PCR performed. (D). ESCs [SHEF1] were treated with 2 μM 1M, or 100 ng/ml ActivinA (A) alone or in combination with 1M for 5 days. Expression of the endoderm markers FoxA2 and HNF4α was analysed by immunofluorescence. The number of percent positive cells averaged from 3 fields of view +/−SD are indicated. Scale bar represents 50 μm. (E) ESCs [SHEF1] were treated with 2 μM 1M, or 100 ng/ml ActivinA (A) alone or in combination with 1M for 5 days. Expression of the DE marker CXCR4 was alaysed by flow cytometry.
as §1

ESCs = test: as above; type: cell-based, human; conditions: 100 ng/ml Activin A with 1M, 7 days, SHEF3
Protocol: as §4, §1

ESCs [SHEF1] [5] = test: Flow cytometry of the DE marker CXCR4; type: cell-based, human; conditions: 2 μM 1M, 100 ng/ml Activin A, alone or in combination, 5 days
Protocol: as §4
ESCs were trypsinised (0.05% Trypsin-EDTA) for 10 minutes at 37° C. and resuspended in PBS containing 2% (v/v) FBS (FBS/PBS). […] Flow cytometry was performed using a FACSCanto cytometer (Becton Dickenson) and the data were analysed with FACSDiva software. […]

ESCs [SHEF1] [6] = test: Immunofluorescence of endoderm markers FoxA2 and HNF4α, percent positive cells; type: cell-based, human; conditions: 5 days
Protocol: as §4
ESCs were cultured on Matrigel®-coated lummox (Greiner Bio One) trays and fixed with 4% paraformaldehyde (PFA) for 20 minutes at room temperature. Cells were permeabilised in PBST (with 0.1% Triton X-100) and blocked in 10% blocking reagent (Roche) before incubating with primary antibodies in 2% blocking reagent overnight at 4° C. After washing in PBS, cells were incubated with FITC-conjugated secondary antibodies (Vector Labs) for 3 hours at room temperature. After further washing, the cells were stained with 4,6-diamidino-2-phenylindole (DAPI) (SIGMA), washed again and mounted in MOWIOL. The following antibodies and dilutions were used: goat-anti-FoxA2 (1:100, R&D. Systems), mouse anti-Sox17 (1:50, R&D Systems), rabbit anti-HNF4α (1:100, Santa Cruz), rabbit anti-AFP (1:100, DAKO), rabbit anti-TTR (1:100, DAKO). Images were captured on a Zeiss 510 Meta confocal microscope using a 40× objective.

[7] = MEF culture, concentration 0.5, 7 days
[8] = MEF culture, concentration 2, 7 days
[9] = mTeSR1, concentration 0.5, 7 days
[10] = mTeSR1, concentration 2, 7 days
[11] = 100 ng/ml Activin A with 2 μM 1M

With `O=C1NC(=O)C2=C1c1cn(c3ccccc13)CCOCCOCCOCCn1cc2c2ccccc21` [1L] the “Differentiation towards the DE (immunostaining FOXA2, SOX17, HNF4α)” value (Human ESCs [SHEF3] [1]) was “induced differentiation towards the DE”.

In the case of `O=C1NC(=O)C2=C1c1cn(c3ccccc13)CCCCC(O)CCCCn1cc2c2ccccc21` [1O], the “OCT4 and NANOG gene expression (RT-PCR)” value (Human ESCs [SHEF3] [2]; 7 days treatment) is reported as “loss of OCT4 and NANOG gene expression”, the “Oct4 protein expression (Western blot)” value (Human ESCs [SHEF3] [2]; 7 days treatment) is reported as “loss of OCT4 protein expression” and the “Proliferation and differentiation of human ESCs (colony morphology)” value (Human ESCs [SHEF3] [2]; 7 days, on MEFs in KO DMEM or on Matrigel in mTeSR1, 1M at 2 μM) is reported as “induced similar differentiation”. For the same molecule, the “Expression of pluripotency markers Tra-1-60 and SSEA4 by flow cytometry (in words)” value (Human ESCs [SHEF3] [3]; 7 days treatment) was “decreased expression of Tra-1-60 and SSEA4”.

For `NC(=O)c1ccc(-c2nc(-c3ccccn3)c(-c3ccc4c(c3)OCO4)[nH]2)cc1` [SB43125, reference compound], the “Effect on 1M-induced GSC and FOXA2 expression” value (ESCs [SHEF1] [4]) was “dramatically reduced” and the “Inhibition of 1M-induced NODAL expression” value (ESCs [SHEF1] [4]) was “only partially inhibited”.

For `O=C1Nc2cc(Br)ccc2/C1=C1/Nc2ccccc2/C1=N\O` [BIO, reference compound], the “Differentiation towards the DE (immunostaining FOXA2, SOX17, HNF4α)” value (Human ESCs [SHEF3] [1]) was “induced differentiation towards the DE”, the Tra1-60 % pos (Human ESCs [SHEF3] [3]; MEF culture, concentration 0.5 (unit not given), 7 days) was 82.2% and the SSEA4 % pos (Human ESCs [SHEF3] [3]; [7]) was 91.3%. The “SSEA4 mean (mean fluorescence intensity)” value (Human ESCs [SHEF3] [3]; [7]) was 6002, the “Tra1-60 mean (mean fluorescence intensity)” value (from here on “Tra1-60 mean”) (Human ESCs [SHEF3] [3]; [7]) was 9497 and the Tra1-60 % pos (Human ESCs [SHEF3] [3]; MEF culture, concentration 2 (unit not given), 7 days) was 75.1%. For the same molecule, the SSEA4 % pos (Human ESCs [SHEF3] [3]; [8]) was 83.3%, the “SSEA4 mean (mean fluorescence intensity)” value (Human ESCs [SHEF3] [3]; [8]) was 4006 and the “Tra1-60 mean” value (Human ESCs [SHEF3] [3]; [8]) was 7441. For the same molecule, the Tra1-60 % pos (Human ESCs [SHEF3] [3]; mTeSR1 (feeder-free, Matrigel), concentration 0.5, 7 days) was 73.7%, the Tra1-60 % pos (Human ESCs [SHEF3] [3]; mTeSR1 (feeder-free, Matrigel), concentration 2, 7 days) was 40.5% and the SSEA4 % pos (Human ESCs [SHEF3] [3]; [9]) was 69.2%. The “SSEA4 mean (mean fluorescence intensity)” value (Human ESCs [SHEF3] [3]; [9]) was 5871, the “Tra1-60 mean” value (Human ESCs [SHEF3] [3]; [9]) was 8194 and the SSEA4 % pos (Human ESCs [SHEF3] [3]; [10]) was 72.5%. For the same molecule, the “SSEA4 mean (mean fluorescence intensity)” value (Human ESCs [SHEF3] [3]; [10]) was 1410 and the “Tra1-60 mean” value (Human ESCs [SHEF3] [3]; [10]) was 890.

B1: Activin A: member of the TGFβ superfamily which binds to the same receptors as Nodal, used to mimic Nodal activity in vitro (protein, UniProt P08476 311-426, looked up)
Inhibin beta A chain: GLECDGKVNICCKKQFFVSFKDIGWNDWIIAPSGYHANYCEGECPSHIAGTSGSSLSFHSTVINHYRMRGHSPFANLKSCCVPTKLRPMSMLYYDDGQNIIKKDIQNMIVEECGCS
modifications: Inhibin beta A chain homodimer
In the case of B1, the “1M-induced expression of AFP in the presence of Activin A” value (ESCs) is reported as “lost”, the “CXCR4 expression by flow cytometry” value (ESCs [SHEF1] [5]) is reported as 26.5% and the “Effect of Activin A on generation of 1M-induced HNF4α expressing cells” value (ESCs [SHEF1] [6]; [11]) is reported as “inhibit generation of 1M-induced HNF4α expressing cells”. The “Effect of addition of Activin A on 1M-induced FoxA2 expression” value (ESCs [SHEF1] [6]; [11]) was “did not further enhance”, the “FOXA2 expressing cells in the entire population” value (ESCs [SHEF1] [6]; 2 μM 1M or 100 ng/ml Activin A) was 8% and the HNF4α-expressing cells (ESCs [SHEF1] [6]; 2 μM 1M or 100 ng/ml Activin A) was 3%.
